According to ChEMBL document CHEMBL3045490, “N-Thiophenylethyl-2,2-dichloro-1-cyclopropanecarboxamides: modification of the amide part of carpropamid and examination of fungicidal activity” (2009):

Columns and labels:
Assay type in all cases: functional
[1] = tested on: Botrytis cinerea; experiment: Antifungal activity against Botryotinia fuckeliana in cucumber cotyledon assessed as lesion area of the disease at 500 ug/ml after 4 days
[2] = tested on: Pseudoperonospora cubensis; experiment: Antifungal activity against Pseudoperonospora cubensis in cucumber assessed as lesion area of the disease at 500 ug/ml after 7 days
[3] = tested on: Blumeria graminis; experiment: Antifungal activity against Blumeria graminis in wheat plant assessed as lesion area of the disease at 500 ug/ml after 10 days
[4] = tested on: Puccinia recondita; experiment: Antifungal activity against Puccinia recondita in wheat plant assessed as lesion area of the disease at 500 ug/ml after 10 days

Compound | Activity [1] | Activity [2] | Activity [3] | Activity [4]
CCC1(C(=O)NCCc2ccc(F)cc2)C(C)C1(Cl)Cl (stereo unspecified) | >=80% | >=80% | <20% | <40%
CCC1(C(=O)NC(C)C2CCC2)C(C)C1(Cl)Cl (stereo unspecified) | >=80% | >=80% | >=80% | >=80%
CCC1(C(=O)NCCc2ccccc2Cl)C(C)C1(Cl)Cl (stereo unspecified) | >=80% | >=80% | >=80% | >=80%
CC(NC(=O)C1(c2ccccc2)CC1(Cl)Cl)c1ccc(Cl)cc1 (stereo unspecified) | >=80% | >=80% | >=80% | >=80%
CC[C@@]1(C(=O)N[C@H](C)c2ccc(Cl)cc2)[C@@H](C)C1(Cl)Cl [CARPROPAMIDE] | >=80% | 0.5% | >=80% | >=80%
CCC1(C(=O)NCCc2ccc(Cl)cc2)C(C)C1(Cl)Cl (stereo unspecified) | >=80% | 3.5% | >=80% | >=80%
CCC1(C(=O)NCC(C)c2ccc(Cl)cc2)C(C)C1(Cl)Cl (stereo unspecified) | >=80% | <20% | >=80% | >=80%
CC(C)(C)C(C#N)C(=O)NCCc1csc(Cl)c1 (stereo unspecified) | >=80% | >=80% | >=80% | 1.5%
CCC1(C(=O)NC(C)C2CCCCC2)C(C)C1(Cl)Cl (stereo unspecified) | >=80% | >=80% | >=80% | >=80%
CC1(C(=O)NCCc2csc(Cl)c2)CC1(Cl)Cl (stereo unspecified) | >=80% | 0.5% | >=80% | 0.5%
CCC1(C(=O)NCCc2ccc(Br)cc2)C(C)C1(Cl)Cl (stereo unspecified) | >=80% | >=80% | >=80% | >=80%
maneb | – | 0% | – | 0%
CCC1(C(=O)NCCc2csc(Cl)c2)C(C)C1(Cl)Cl (stereo unspecified) | >=80% | 0.5% | >=80% | >=80%
CC(C)(C)C(Cl)C(=O)NCCc1csc(Cl)c1 (stereo unspecified) | >=80% | >=80% | >=80% | >=80%
N#Cc1c[nH]cc1-c1cccc2c1OC(F)(F)O2 [FLUDIOXONIL] | 0% | – | – | –
CCC1(C(=O)NC(C)CC(F)(F)F)C(C)C1(Cl)Cl (stereo unspecified) | >=80% | >=80% | >=80% | >=80%
CCC1(C(=O)OCCc2csc(Cl)c2)C(C)C1(Cl)Cl (stereo unspecified) | 2.5% | <20% | >=80% | >=80%
CC(NC(=O)C1(C(C)C)CC1(Cl)Cl)c1ccc(Cl)cc1 (stereo unspecified) | >=80% | >=80% | >=80% | <20%
CCC1(C(=O)Nc2ccc(Cl)cc2)C(C)C1(Cl)Cl (stereo unspecified) | >=80% | >=80% | >=80% | >=80%
CC1(C)C(Cl)(Cl)C1(C)C(=O)NCCc1csc(Cl)c1 (stereo unspecified) | >=80% | >=80% | <20% | 0.5%
CCC1(C(=O)NC(C)c2ccc(Cl)s2)C(C)C1(Cl)Cl (stereo unspecified) | >=80% | >=80% | >=80% | 1.5%
CCC1(C(=O)NCCc2cc(Cl)c(Cl)s2)C(C)C1(Cl)Cl (stereo unspecified) | >=80% | >=80% | >=80% | >=80%
CCC1(C(=O)NCCc2ccc(C)cc2)C(C)C1(Cl)Cl (stereo unspecified) | >=80% | >=80% | 2.5% | >=80%
CCC1(C(=O)NCCc2ccccc2)C(C)C1(Cl)Cl (stereo unspecified) | >=80% | 0% | 0.5% | 1.5%
CCC1(C(=O)NCCc2cccc(Cl)c2)C(C)C1(Cl)Cl (stereo unspecified) | >=80% | 0% | 2.5% | <40%
CCC1(C(=O)NCCCc2ccc(Cl)cc2)C(C)C1(Cl)Cl (stereo unspecified) | >=80% | 0% | >=80% | >=80%

Compound | Activity [1] | Activity [2] | Activity [3] | Activity [4]
CC(C)(C)CC(=O)NCCc1csc(Cl)c1 | >=80% | >=80% | 1.5% | >=80%
CCC1(C(=O)NCCc2ccc(Cl)s2)C(C)C1(Cl)Cl (stereo unspecified) | >=80% | >=80% | >=80% | 1.5%
CCC1(C(=O)NCCc2ccc(Cl)cc2Cl)C(C)C1(Cl)Cl (stereo unspecified) | >=80% | >=80% | >=80% | >=80%
CC(Cc1ccc(C(C)(C)C)cc1)CN1CCCCC1 (stereo unspecified) [FENPROPIDIN] | – | – | 0% | –
CCC1(C(=O)NCCc2ccc(F)cc2F)C(C)C1(Cl)Cl (stereo unspecified) | <20% | 0% | 2.5% | >=80%
CCC1(C(=O)NCCc2ccc(Cl)c(Cl)c2)C(C)C1(Cl)Cl (stereo unspecified) | >=80% | 0% | >=80% | 3.5%
CCC1(C(=O)NCCc2ccsc2)C(C)C1(Cl)Cl (stereo unspecified) | >=80% | >=80% | >=80% | <40%
CCC1(C(=O)NC(C)Cc2ccc(Cl)cc2)C(C)C1(Cl)Cl (stereo unspecified) | >=80% | >=80% | >=80% | >=80%
CC(C)(C)C(Br)C(=O)NCCc1csc(Cl)c1 (stereo unspecified) | >=80% | >=80% | >=80% | <20%
CCC1(C(=O)NCCc2csc(Cl)n2)C(C)C1(Cl)Cl (stereo unspecified) | >=80% | 0% | >=80% | 0.5%
CCC1(C(=O)NC(C)C2CC2(Cl)Cl)C(C)C1(Cl)Cl (stereo unspecified) | >=80% | >=80% | >=80% | >=80%
CCC(C)NC(=O)C1(CC)C(C)C1(Cl)Cl (stereo unspecified) | <20% | >=80% | >=80% | >=80%
CCC1(C(=O)NCCc2cc(Cl)sc2Cl)C(C)C1(Cl)Cl (stereo unspecified) | >=80% | >=80% | >=80% | >=80%
CCC1(C(=O)NCc2ccc(Cl)cc2)C(C)C1(Cl)Cl (stereo unspecified) | >=80% | <20% | >=80% | >=80%
CCC1(C(=O)NCCc2cc(Br)cs2)C(C)C1(Cl)Cl (stereo unspecified) | <40% | 0% | >=80% | >=80%
CCC1(C(=O)NC(C)C2CCCCCC2)C(C)C1(Cl)Cl (stereo unspecified) | >=80% | 0% | >=80% | >=80%
CCC1(C(=O)NC(C)C2CCCC2)C(C)C1(Cl)Cl (stereo unspecified) | 3.5% | 0% | >=80% | >=80%
CCC1(C(=O)NC(C)C)C(C)C1(Cl)Cl (stereo unspecified) | 3.5% | 0% | >=80% | >=80%
CC(NC(=O)C1(C2CCCC2)CC1(Cl)Cl)c1ccc(Cl)cc1 (stereo unspecified) | >=80% | >=80% | >=80% | >=80%
CCC1(C(=O)NCCc2cc(Cl)cs2)C(C)C1(Cl)Cl (stereo unspecified) | >=80% | >=80% | >=80% | <40%
CCC1(C(=O)NCCc2ccc(C(F)(F)F)cc2)C(C)C1(Cl)Cl (stereo unspecified) | >=80% | >=80% | 0.5% | >=80%
CCC1(C(=O)NC(C)c2csc(Cl)c2)C(C)C1(Cl)Cl (stereo unspecified) | >=80% | <20% | >=80% | >=80%
CCC1(C(=O)NC(C)C2CC3C=CC2C3)C(C)C1(Cl)Cl (stereo unspecified) | <40% | >=80% | >=80% | >=80%
CC1(C)C(C(=O)NCCc2csc(Cl)c2)C1(Cl)Cl (stereo unspecified) | >=80% | 1.5% | >=80% | 1.5%
CCCC1(C(=O)NCCc2csc(Cl)c2)CC1(Cl)Cl (stereo unspecified) | 0.5% | >=80% | >=80% | >=80%
